In assay [1] the target is T1, Mcm467 (Saccharomyces cerevisiae, UniProt P30665+P38132+P53091).
T1 construct: made in house; host or cells: baculovirus-infected insect cells
The experiment in a line: ssDNA double filter-binding assay, Mcm467. Conditions: 1 mM compound, 150 nM helicase.

The subject of assay [2] is T2, Mcm2-7.
T2 construct: made in house; host or cells: baculovirus-infected insect cells
The experiment in a line: ssDNA double filter-binding assay, Mcm2-7. Particulars: 1 mM compound, 150 nM helicase. The arrangement: species or system Saccharomyces cerevisiae.

Assay [3] deals with pUC19. As to the kind of experiment: DNA intercalation assay (Topo I-relaxed plasmid). The assay is classed as biochemical. The text has this:
To examine this model, we tested our inhibitors in a standard topoisomerase assay. The rationale of this assay is that intercalating compounds will introduce supercoils into a fully relaxed plasmid. Topo I will remove these introduced supercoils, but after quenching and gel electrophoresis the intercalator will diffuse away and produce a detectable compensatory supercoiling increase.

Assay [4] has as its target T1, Mcm467. As to the kind of experiment: Mcm467 helicase (DNA unwinding) assay. The class given is biochemical.
For assay [5], the target named is T3, T4 gp41 (Enterobacteria phage T4, UniProt P04530).
T3 sequence (P04530 1-475): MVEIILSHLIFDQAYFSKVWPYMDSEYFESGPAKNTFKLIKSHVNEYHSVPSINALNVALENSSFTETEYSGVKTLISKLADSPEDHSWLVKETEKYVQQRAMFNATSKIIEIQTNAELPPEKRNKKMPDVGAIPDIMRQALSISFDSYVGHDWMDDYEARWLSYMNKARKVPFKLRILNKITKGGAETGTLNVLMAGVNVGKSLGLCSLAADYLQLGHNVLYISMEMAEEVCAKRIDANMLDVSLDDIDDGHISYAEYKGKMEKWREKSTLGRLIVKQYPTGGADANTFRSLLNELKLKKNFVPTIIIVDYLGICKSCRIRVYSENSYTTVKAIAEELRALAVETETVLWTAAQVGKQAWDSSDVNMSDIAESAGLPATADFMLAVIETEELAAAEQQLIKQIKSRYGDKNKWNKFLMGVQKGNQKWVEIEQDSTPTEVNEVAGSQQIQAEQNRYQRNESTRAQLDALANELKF
The experiment in a line: T4 gp41 helicase assay. The class given is biochemical. Conditions: 1 mM, Figure S3. The method, then:
(§1) Helicase assays were performed essentially as described. Synthetic replication forks were prepared by annealing oligos 233 and 235 [IDT (Coralville), oligo 233 5′(T)40[…]; oligo 235 5′ […](T)40] and then filling in the recessed 3′-end with [α32P]dATP and unlabelled dNTPs using Klenow Fragment. Briefly, reactions ([…]) were performed in 1× helicase assay buffer [20 mM Tris/HCl (pH 7.5), 10 mM MgOAc, 20% (v/v) glycerol, 100 μM EDTA and 5 mM DTT (dithiothreitol)] and contained a final concentration of 1 nM fork substrate, 5 mM ATP, 40 mM creatine phosphate, […] creatine kinase, 33 μg/ml BSA. Reactions containing Mcm2-7 and Mcm467 were supplemented with 200 mM potassium glutamate. Reactions containing SsoMcm were incubated at 65°C, those containing T4 gp41 were incubated for 30 min at 37°C, and all other reactions were incubated at 37°C for 1 h. The products were separated by 10% (w/v) native PAGE, the resulting gels dried and the radioactivity quantified using a Fuji FLA-5100 phosphoimager. Irrespective of the protein used, all helicase assays contained equal molar helicase concentrations (100 nM, assuming in all cases that the active helicase form is hexameric). Steady-state ATP hydrolysis was assayed as published. In short, reactions were set up essentially as in the helicase assay, with minor exceptions. A non-radiolabelled DNA fork was used, helicase concentration was 100 nM (hexamer) the total ATP concentration was 500 μM and included ~0.5 μCi of [α32P]ATP, and the ATP regeneration system was omitted. Reactions were incubated for 1 h at 37°C and stopped by the addition of SDS. ATP was separated from ADP by PEI (polyethyleneimine) thin layer chromatography, and the ratio of ATP:ADP was quantified using a Fuji FLA-5100 phosphoimager. Based on our prior work, conditions were established to ensure that the results shown are within the linear range of the assay. Protein–ssDNA binding was determined with a double filter-binding assay using an ssDNA probe (oligo 826, 5′[…]) that was 5′-radiolabelled using T4 polynucleotide kinase and [γ32P]ATP [16]. For the double filter-binding assay, the helicase concentration was 150 nM (hexamer) and the ssDNA concentration was 4 nM. For all biochemical assays, helicases were preincubated with inhibitors for 20 min at 37°C unless otherwise indicated. […]
(§2) against different helicases
(§3) Representative helicase activity assays in the presence of the indicated inhibitor were tested, quantiﬁed and standardized as described in the legend to F igures 2 (A) and (B). All helicases were assayed at 100 nM
(§4) ﬁnal concentration (hexamer) with inhibitor preincubation prior to ATP […]
(§5) F igure S3 Ciproﬂoxacin poor ly inhibits hexameric helicases un- […]
(§6) All inhibitors were used at 1 mM ﬁnal concentration. […]

Assay [6] has as its system S. cerevisiae ∆erg6 (UPY675). As to the kind of experiment: Yeast growth inhibition, 96-well assay, ∆erg6 strain. The assay is classed as cell-based, Saccharomyces cerevisiae. Particulars: for IC50: Saccharomyces cerevisiae, ∆erg6 strain, growth over 24 h, read-out: IC50 Yeast.
For assay [7], the target named is T2, Mcm2-7. As to the kind of experiment: Mcm2-7 helicase (DNA unwinding) assay. The assay is classed as biochemical, Saccharomyces cerevisiae. Particulars: for IC50: DNA unwinding.
Assay [8] deals with RPE-hTERT cells. The experiment in a line: Human cell viability, MTS method. Particulars: 48 h, value (95% CI). The assay is classed as cell-based. As for the experimental part:
Ciproﬂoxacin is an inhibitor of the Mcm2-7 […]
The viability of human cells was assayed using the MTS method
[1]. Brieﬂy, 1 ×10^5 cells of the human non-tumour cell line RPE-hTERT were plated into each well of a 96-well plate and grown in DMEM: F12 containing 10 % (v/v) FBS in 5 % (v/v) CO2 at 37 ◦ C. The next day, the indicated compounds were titrated into media such that the ﬁnal concentration contained 1 % (v/v)
DMSO. As a negative control, media were also prepared that contained 1 % DMSO but lacked compound. After 48 h, the media was removed and replaced with DMEM lacking phenol red but containing Cell Titer 96 Aqueous One Solution Cell Proliferation
Assay (Promega). After 1 h, the A490 nm was measured using a BioRad iMark Microplate Reader (Hercules). Final data reﬂect the average and standard deviation (S.D.) of three replicates at each compound concentration. […]
A general note: Formazan colour is commonly taken as a measure of viable cells.

Assay [9] deals with SV40 large TAg (T-antigen) (Simian virus 40, UniProt P03070). The experiment in a line: biochemical. The arrangement: species or system SV40 (simian virus 40). Conditions: for IC50: DNA unwinding.
Chain of SV40 large TAg (T-antigen) (P03070 whole entry, looked up): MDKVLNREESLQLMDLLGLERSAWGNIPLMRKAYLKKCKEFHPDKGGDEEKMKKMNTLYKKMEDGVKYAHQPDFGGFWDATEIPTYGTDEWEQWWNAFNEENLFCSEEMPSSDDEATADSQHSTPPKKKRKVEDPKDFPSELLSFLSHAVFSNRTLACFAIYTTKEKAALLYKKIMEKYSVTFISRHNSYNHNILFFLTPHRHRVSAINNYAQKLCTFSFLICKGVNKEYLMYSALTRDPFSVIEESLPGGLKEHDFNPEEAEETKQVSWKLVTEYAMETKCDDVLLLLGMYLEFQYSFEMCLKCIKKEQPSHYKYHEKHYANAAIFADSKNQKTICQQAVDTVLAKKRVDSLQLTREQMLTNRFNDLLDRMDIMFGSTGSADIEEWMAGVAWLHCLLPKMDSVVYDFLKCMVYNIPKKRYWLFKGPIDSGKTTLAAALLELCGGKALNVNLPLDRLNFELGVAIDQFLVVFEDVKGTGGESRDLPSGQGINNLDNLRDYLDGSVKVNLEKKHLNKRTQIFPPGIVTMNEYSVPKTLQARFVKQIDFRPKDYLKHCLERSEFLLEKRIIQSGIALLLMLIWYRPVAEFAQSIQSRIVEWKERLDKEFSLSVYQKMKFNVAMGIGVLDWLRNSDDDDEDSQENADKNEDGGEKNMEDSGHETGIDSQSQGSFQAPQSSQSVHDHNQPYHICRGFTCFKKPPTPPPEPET
For assay [10], the target named is DnaB (Escherichia coli, UniProt P0ACB0). The experiment in a line: DnaB helicase assay. Particulars: 1 mM, Figure S3. The assay is classed as biochemical. The method, then: as §1, §2, §3, §4, §5, §6
Chain of DnaB (P0ACB0 whole entry): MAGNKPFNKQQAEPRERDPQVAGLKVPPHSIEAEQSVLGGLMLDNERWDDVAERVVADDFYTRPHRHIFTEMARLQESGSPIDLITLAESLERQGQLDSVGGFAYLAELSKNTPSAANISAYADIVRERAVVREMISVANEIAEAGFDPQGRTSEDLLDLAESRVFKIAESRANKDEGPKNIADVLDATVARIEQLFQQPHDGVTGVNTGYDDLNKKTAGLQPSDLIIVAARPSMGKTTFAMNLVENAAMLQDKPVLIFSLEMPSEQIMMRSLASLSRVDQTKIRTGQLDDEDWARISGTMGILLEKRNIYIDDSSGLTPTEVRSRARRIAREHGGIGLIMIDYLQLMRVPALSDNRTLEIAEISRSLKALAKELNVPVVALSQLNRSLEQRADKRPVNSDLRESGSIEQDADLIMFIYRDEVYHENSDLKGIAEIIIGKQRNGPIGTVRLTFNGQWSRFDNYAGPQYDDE
Assay [11] addresses T1, Mcm467. As to the kind of experiment: Steady-state ATP hydrolysis by Mcm467. The class given is biochemical. Particulars: 1 mM compound, 100 nM hexamer.
Assay [12] addresses T4, SV40 large TAg (Simian virus 40, UniProt P03070).
T4 construct: made in house
The experiment in a line: Steady-state ATP hydrolysis by TAg. The class given is biochemical, SV40 (simian virus 40). Particulars: 1 mM compound, 100 nM hexamer.

For assay [13], the system named is T2, Mcm2-7. The experiment in a line: Steady-state ATP hydrolysis by Mcm2-7. The class given is biochemical, Saccharomyces cerevisiae. Conditions: 1 mM compound, 100 nM hexamer.
[14] abbreviates: 1 mM inhibitor added after plasmid relaxation (Figure 3C).
Setting [15] is: inhibitor at 2- to 3-fold over calculated helicase IC50 (Figure 3E).
The mark [16] stands for this setting: 100 nM hexamer, inhibitor preincubation, […], read-out: IC50 T-antigen.
[17] abbreviates: DNA unwinding, 100 nM hexamer, inhibitor preincubation, value (95% CI), read-out: IC50 Mcm467.
Where [18] appears, read: 100 nM hexamer, inhibitor preincubation, value (95% CI), read-out: IC50 Mcm2-7.
Where [19] appears, read: any concentration tested, results not shown.

Read-outs that look alike come from different tables or passages of the source. Where only a bound is given, the exact number is not on record here.

T1 sequence (P30665 whole entry): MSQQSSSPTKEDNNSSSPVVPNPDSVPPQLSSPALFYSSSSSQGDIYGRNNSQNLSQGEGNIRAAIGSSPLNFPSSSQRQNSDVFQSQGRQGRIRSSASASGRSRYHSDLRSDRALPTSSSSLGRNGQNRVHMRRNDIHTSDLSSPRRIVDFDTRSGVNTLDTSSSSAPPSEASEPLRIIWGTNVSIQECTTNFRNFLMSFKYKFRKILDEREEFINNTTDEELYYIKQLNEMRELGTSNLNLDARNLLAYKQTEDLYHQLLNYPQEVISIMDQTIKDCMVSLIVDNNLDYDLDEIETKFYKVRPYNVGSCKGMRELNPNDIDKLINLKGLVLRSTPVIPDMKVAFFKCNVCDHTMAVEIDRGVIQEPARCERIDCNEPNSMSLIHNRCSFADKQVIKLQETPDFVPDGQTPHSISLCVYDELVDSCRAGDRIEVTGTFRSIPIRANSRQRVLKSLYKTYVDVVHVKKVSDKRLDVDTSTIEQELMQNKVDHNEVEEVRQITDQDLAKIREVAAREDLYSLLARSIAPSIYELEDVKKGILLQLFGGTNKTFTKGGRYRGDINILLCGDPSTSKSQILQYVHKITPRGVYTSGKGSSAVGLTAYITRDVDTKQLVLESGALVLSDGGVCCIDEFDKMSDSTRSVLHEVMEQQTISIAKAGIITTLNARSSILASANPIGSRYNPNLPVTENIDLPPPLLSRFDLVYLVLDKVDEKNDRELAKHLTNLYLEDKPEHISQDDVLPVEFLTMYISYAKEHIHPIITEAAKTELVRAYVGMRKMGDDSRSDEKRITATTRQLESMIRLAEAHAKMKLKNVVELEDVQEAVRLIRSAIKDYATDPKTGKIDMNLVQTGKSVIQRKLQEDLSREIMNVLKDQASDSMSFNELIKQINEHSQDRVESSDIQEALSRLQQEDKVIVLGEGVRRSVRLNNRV
T1 sequence (P53091 whole entry): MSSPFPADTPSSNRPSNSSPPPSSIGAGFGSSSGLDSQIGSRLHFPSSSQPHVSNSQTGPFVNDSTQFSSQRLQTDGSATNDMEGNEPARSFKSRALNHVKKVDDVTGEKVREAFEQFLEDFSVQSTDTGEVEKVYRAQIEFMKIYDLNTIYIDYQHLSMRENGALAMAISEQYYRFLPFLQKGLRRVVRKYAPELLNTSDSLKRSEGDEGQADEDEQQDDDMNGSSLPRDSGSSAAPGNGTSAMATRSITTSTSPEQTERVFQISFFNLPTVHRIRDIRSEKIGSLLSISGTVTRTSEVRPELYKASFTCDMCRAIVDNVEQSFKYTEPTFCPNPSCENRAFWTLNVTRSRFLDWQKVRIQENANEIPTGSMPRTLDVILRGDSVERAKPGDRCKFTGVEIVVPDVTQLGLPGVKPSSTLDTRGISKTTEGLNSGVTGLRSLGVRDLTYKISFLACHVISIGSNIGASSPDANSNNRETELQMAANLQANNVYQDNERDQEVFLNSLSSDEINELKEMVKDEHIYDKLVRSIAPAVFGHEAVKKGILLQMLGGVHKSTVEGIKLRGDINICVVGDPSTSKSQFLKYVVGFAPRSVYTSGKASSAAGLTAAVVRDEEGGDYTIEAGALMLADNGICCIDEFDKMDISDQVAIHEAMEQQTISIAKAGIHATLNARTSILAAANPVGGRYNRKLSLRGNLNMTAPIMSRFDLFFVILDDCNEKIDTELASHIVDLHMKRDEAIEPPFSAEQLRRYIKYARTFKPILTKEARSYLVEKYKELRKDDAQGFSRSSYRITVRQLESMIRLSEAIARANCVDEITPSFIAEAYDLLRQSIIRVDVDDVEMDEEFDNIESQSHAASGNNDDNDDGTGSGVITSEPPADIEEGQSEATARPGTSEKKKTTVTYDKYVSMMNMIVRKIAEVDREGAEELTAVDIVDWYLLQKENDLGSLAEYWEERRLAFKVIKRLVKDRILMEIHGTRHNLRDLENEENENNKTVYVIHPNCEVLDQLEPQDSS
T1 sequence (P38132 whole entry): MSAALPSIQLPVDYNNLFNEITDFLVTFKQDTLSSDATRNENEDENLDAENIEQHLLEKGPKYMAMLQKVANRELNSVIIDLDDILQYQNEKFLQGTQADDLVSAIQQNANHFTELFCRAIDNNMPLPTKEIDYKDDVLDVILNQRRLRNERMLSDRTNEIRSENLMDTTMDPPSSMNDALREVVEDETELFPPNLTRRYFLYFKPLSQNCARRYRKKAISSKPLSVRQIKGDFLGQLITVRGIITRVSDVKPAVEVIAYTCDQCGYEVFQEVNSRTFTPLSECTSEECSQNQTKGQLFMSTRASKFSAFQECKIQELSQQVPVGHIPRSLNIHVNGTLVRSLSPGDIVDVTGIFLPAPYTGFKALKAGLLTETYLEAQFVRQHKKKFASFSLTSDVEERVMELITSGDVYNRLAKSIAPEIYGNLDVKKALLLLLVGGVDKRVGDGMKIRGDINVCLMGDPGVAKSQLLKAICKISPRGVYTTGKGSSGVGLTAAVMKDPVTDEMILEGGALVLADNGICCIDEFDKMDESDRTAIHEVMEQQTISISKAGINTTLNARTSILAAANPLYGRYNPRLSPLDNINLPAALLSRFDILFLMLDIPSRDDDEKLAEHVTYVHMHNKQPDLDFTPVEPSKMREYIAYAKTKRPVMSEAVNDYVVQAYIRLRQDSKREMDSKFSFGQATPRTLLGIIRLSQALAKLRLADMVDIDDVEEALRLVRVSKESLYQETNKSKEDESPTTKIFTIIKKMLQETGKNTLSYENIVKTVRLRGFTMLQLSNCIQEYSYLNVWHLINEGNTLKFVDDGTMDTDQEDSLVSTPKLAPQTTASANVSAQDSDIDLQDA
T4 sequence (P03070 whole entry): as the sequence (P03070 whole entry, looked up) above

On to `CCN1C(=O)C=CC1=O` [NEM, N-ethylmaleimide], for which the “effect on ssDNA binding of Mcm467” value in [1] is listed as “inhibit”. Besides, the “effect on ssDNA binding of Mcm2-7” value in assay [2] was “inhibit”.
A word on the IC50: it is the midpoint of a concentration-inhibition curve. Take `Cc1c(F)c(N2CCC(N)C2)nc2c1c(=O)c(C(=O)O)cn2C1CC1` (stereo not shown) [compound 125248]: the figures for the DNA intercalation result in assay [3] (setting [14]) and in [3] (setting [15]) were “extensive DNA intercalation” and “significant DNA intercalation”, respectively. Further, the IC50 is 130 µM in assay [4] (IC50 Mcm467, DNA unwinding, 100 nM hexamer, inhibitor preincubation, value (95% CI)); 460 µM in [6] (value (95% CI)); 72 µM in assay [7] (read-out: IC50 Mcm2-7, 100 nM hexamer, inhibitor preincubation, value (95% CI)); 14 µM in assay [8]; around 10 µM in assay [8] (Homo sapiens); 190 µM in assay [9] (setting [16]). The “inhibition of T4 gp41 helicase” value in [5] is recorded as “nearly complete inhibition”. Besides, the “inhibition of DnaB helicase” value in assay [10] is reported as “nearly complete inhibition”.
`NC1CCN(c2ccc3c(=O)c(C(=O)O)cn(-c4ccc(O)cc4)c3c2Cl)C1` (stereo not shown) [compound 268973]: the DNA intercalation entry in assay [3] (setting [14]) is given as “extensive DNA intercalation”; in [3] (setting [15]), “significant DNA intercalation”. Besides, the IC50 in [4] (setting [17]) was found to be 272 µM; in assay [6] (value (95% CI)) it was 160 µM; in assay [7] (setting [18]), 188 µM; in [9] (setting [16]), 476 µM. Also, the “inhibition of T4 gp41 helicase” value in assay [5] is “nearly complete inhibition”. In addition, the “effect on ATP hydrolysis of Mcm467” value in [11] was “modest inhibition”. The “effect on ATP hydrolysis of TAg” value in assay [12] is on record as “modest inhibition”. Also, the “inhibition of DnaB helicase” value in assay [10] is “nearly complete inhibition”. Further, in [13], the “effect on ATP hydrolysis of Mcm2-7” value is listed as “modest inhibition”.
Turning to `Cc1ccc(-c2cc(-c3ccccc3)nc(N3CCNCC3)n2)cc1` [compound 388612], in assay [3] (setting [14]), the DNA intercalation entry was “extensive DNA intercalation”. Besides, the IC50 in assay [4] (setting [17]) was 345 µM; in [6] (insufficient data for 95% CI), below 0.01 µM; in assay [7] (setting [18]), 396 µM; in [9] (setting [16]), 126 µM.
Regarding `c1ccc(Nc2nc(Nc3ccccc3)nc(N3CCNCC3)n2)cc1` [compound 924384], the DNA intercalation entry in assay [3] (setting [14]) is on record as “extensive DNA intercalation”. The 50% inhibitory concentration (IC50) in assay [4] (setting [17]) was 246 µM; in assay [6] (value (95% CI)) it was 93 µM; in [7] (setting [18]), 115 µM; in assay [8] (Homo sapiens) it was around 10 µM; in assay [9] (setting [16]), 70 µM. Besides, the “inhibition of T4 gp41 helicase” value in [5] is listed as “nearly complete inhibition”. Further, in [10], the “inhibition of DnaB helicase” value is “nearly complete inhibition”.
Regarding `CCn1cc(C(=O)O)c(=O)c2ccc(C)nc21` [naladixic acid, reference compound], the “effect on Mcm467 helicase activity” value in assay [4] (setting [19]) is on record as “essentially no effect”. Besides, the “effect on Mcm2-7 helicase activity” value in assay [7] (setting [19]) is on record as “essentially no effect”. In [9] (setting [19]), the “effect on TAg helicase activity” value was “essentially no effect”.
For the compound `CC1COc2c(N3CCN(C)CC3)c(F)cc3c(=O)c(C(=O)O)cn1c23` (stereo not shown) [ofloxacin, reference compound], the IC50 in assay [4] (DNA unwinding, 100 nM complex, read-out: IC50 Mcm467 helicase activity) is 5290 µM; in assay [7] (100 nM complex, read-out: IC50 Mcm2-7 helicase activity) it was 4170 µM; in [9] (100 nM complex, read-out: IC50 TAg helicase activity), above 20000 µM. Moreover, the “growth response of ∆erg6 yeast” value in assay [6] (Figure 4A) is on record as “demonstrable growth sensitivity”.

These data come from publication PMC3791872 (Bioscience Reports, 2013).
